For 18 compounds, microsomal CLint, Drug metabolism and CLint scaled results are on record in ChEMBL document CHEMBL3797093, “Optimization of amide-based EP3 receptor antagonists” (Bioorg Med Chem Lett, 2016).

Data set [1] can be described thus: Apparent intrinsic clearance in human liver microsomes in presence of NADPH. Format: ADME. To be noted: read-out: CLH(app).
In data set [2] the test system is Hepatocyte. The experiment in a line: Drug level in human hepatocytes treated with GSK. Format: ADME, cell-based.
Data set [3] concerns Hepatocyte. The experiment in a line: Drug metabolism in human hepatocytes assessed as N-(5-(2,6-dichlorophenyl)-1,3,4-thiadiazol-2-yl)-4-(2-hydroxyethyl)-3,4-dihydro-2H-benzo[b][1,4]oxazine-6-carboxamide formation. Type of data set: ADME, cell-based.
For data set [4], the system named is Hepatocyte. The experiment in a line: Drug metabolism in human hepatocytes assessed as N-(5-(2,6-dichlorophenyl)-1,3,4-thiadiazol-2-yl)-3-(ethylamino)-4-hydroxybenzamide formation. Type of data set: ADME, cell-based.
For data set [5], the system named is Hepatocyte. The experiment in a line: Drug metabolism in human hepatocytes assessed as 4-ethyl-3,4-dihydro-2H-benzo[b][1,4]oxazine-6-carboxylic acid formation. Format: ADME, cell-based.
A short description of data set [6]: Intrinsic clearance in human hepatocytes. Type of data set: ADME, cell-based, Hepatocyte. To be noted: read-out: CLH.

Some results are limits rather than exact numbers.

On to `Cn1ncc2ncc(C(=O)Nc3nnc(C4CC4)s3)cc21`, for which, in data set [1], the microsomal CLint is under 8 µL/min/mg. Turning to `CCn1ncc2ccc(C(=O)Nc3nnc(C4CC4)s3)cc21`, in data set [1], the microsomal CLint is under 8 µL/min/mg. Still for that read-out and setting: to `CCn1ncc2c(F)cc(C(=O)Nc3nnc(C4CC4)s3)cc21` belongs 8.6 µL/min/mg; to `CCn1ncc2c(F)cc(C(=O)Nc3nnc(C4(C)CCN(C(C)=O)CC4)s3)cc21`, under 8.6 µL/min/mg; to `CCn1ncc2c(Cl)cc(C(=O)Nc3nnc(C4CC4)s3)cc21`, 10.9 µL/min/mg. With `O=C(Nc1nnc(-c2c(Cl)cccc2Cl)s1)c1ccc2c(c1)N(CCO)CCO2`, in data set [2], the Drug metabolism result was “metabolite_detected”. As for `Cn1ncc2ccc(C(=O)Nc3nnc(C4CC4)s3)cc21`, the microsomal CLint in data set [1] is under 8 µL/min/mg. As for `CCNc1cc(C(=O)Nc2nnc(-c3c(Cl)cccc3Cl)s2)ccc1O`, the Drug metabolism entry in data set [2] is on record as “metabolite_detected”.

`CCN1CCOc2ccc(C(=O)Nc3nnc(C4CC4)s3)cc21`: the microsomal CLint in data set [1] is 25 µL/min/mg.

For `CCn1ncc2c(F)cc(C(=O)Nc3nnc(C4(C)CN(C(C)=O)C4)s3)cc21`, the microsomal CLint in data set [1] is under 8 µL/min/mg. Same read-out and setting: with `CCn1ncc2c(F)cc(C(=O)Nc3nnc(C4(C)CCN(C(=O)CO)CC4)s3)cc21` the figure was under 8 µL/min/mg. Turning to `CC(C)n1ncc2ccc(C(=O)Nc3nnc(C4CC4)s3)cc21`, the microsomal CLint in data set [1] is 13.2 µL/min/mg. Turning to `Cn1ncc2cc(C(=O)Nc3nnc(C4CC4)s3)ccc21`, the microsomal CLint in data set [1] turned out to be 21.3 µL/min/mg. Take `CCn1ncc2c(F)cc(C(=O)Nc3nnc(C4(C)CCN(C(=O)C(C)(C)O)CC4)s3)cc21`: the microsomal CLint in data set [1] is 20 µL/min/mg. As for `CCN1CCOc2ccc(C(=O)O)cc21`, the Drug metabolism result in data set [2] is listed as “metabolite_detected”.

For the compound `CCN1CCOc2ccc(C(=O)Nc3nnc(-c4c(Cl)cccc4Cl)s3)cc21`, the Drug metabolism entry in data set [3], in data set [4] and in data set [5] was “metabolite_detected” in each case. Also, the CLint scaled in data set [1] turned out to be 39 mL/min/kg; in data set [6], 59 mL/min/kg. Consider `CCn1ncc2c(F)cc(C(=O)Nc3nnc(C4(C)CCN(C(C)=O)C4)s3)cc21` (racemic), for which the microsomal CLint in data set [1] was under 8 µL/min/mg.

Regarding `CCn1ncc2c(F)cc(C(=O)Nc3nnc(C4(C)CCN(C(=O)C(C)O)CC4)s3)cc21` (racemic), the microsomal CLint in data set [1] is under 8 µL/min/mg.
